Experimental data from patent US20080160033A1, “Novel Screening Method” (Takeda Pharmaceutical Company Limited, priority 2003, published 2008).

Tests used:
[1] = system: AtT-20 cells; test: Suppression of CRF-induced ACTH secretion from AtT-20 cells; settings: 10 nM CRF, 90 minutes; fatty acid with BSA
[2] = biological target: T1, human 14273 (Homo sapiens, UniProt Q5NUL3); test: Change in intracellular calcium level (FLIPR) in CHO-K1 cells transiently expressing human 14273; type: cell-based; settings: 30 μM fatty acid (FIG. 1-5); human 14273-expressed CHO-K1 cells; no response in expression vector alone-transfected control cells
T1 construct: expressed in transfected cells; host or cells: CHO-K1, transient transfection (Lipofectamine) with the pAKKO-111-based expression vector
T1 sequence (Q5NUL3 1-361): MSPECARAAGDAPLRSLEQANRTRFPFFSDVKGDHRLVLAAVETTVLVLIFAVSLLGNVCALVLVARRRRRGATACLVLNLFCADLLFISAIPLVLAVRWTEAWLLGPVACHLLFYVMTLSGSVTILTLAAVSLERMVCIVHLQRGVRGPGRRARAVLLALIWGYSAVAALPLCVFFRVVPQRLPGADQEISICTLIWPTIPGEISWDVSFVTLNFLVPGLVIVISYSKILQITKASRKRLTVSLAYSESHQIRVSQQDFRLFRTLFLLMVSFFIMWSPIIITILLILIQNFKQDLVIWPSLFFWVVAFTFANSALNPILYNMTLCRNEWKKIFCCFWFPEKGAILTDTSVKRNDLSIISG
Experimental: (§1) CHO-K1 cells were incubated in Ham F-12 medium (Invitrogen) containing […] calf fetal serum, unless otherwise indicated. On the day before transfection, the cells were plated in 4.5×10^5/10 cm^2 and incubated at 37° C., for 15 hours or longer in a CO2 incubator adjusted to a 5% CO2 concentration. Transfection was carried out by a modification of the procedure described in the protocol attached to the reagent, using Lipofectamine reagent (Invitrogen). Where a 6-well plate was used for the incubator, the procedure was performed as follows. First, 2 tubes each having a 1.5 ml volume were prepared and 100 μl each of Opti-MEM-1 medium (Invitrogen) were dispensed in each tube. Next, after 1 μg of the expression vector was charged in one tube and in another tube 6 μl of the Lipofectamine reagent was charged, they were mixed and settled at room temperature for 20 minutes. A mixture for transfection of The resulting solution was added with 800 μl of Opti-MEM-1 medium and the resulting mixture for transfection was added to CHO-K1 cells previously washed with Opti-MEM-1 medium, followed by incubation in a CO2 incubator for 6 hours. The cells after incubation were rinsed with PBS (Invitrogen), then scraped off using 0.05% trypsin-EDTA solution (Invitrogen) and recovered by centrifugation. The cells collected were counted and diluted to contain 5×10^4 cells per 100 μl of the medium. The dilution was dispensed in a black walled 96-well plate (Costar) at a density of 100 μl/well, followed by incubation overnight in a CO2 incubator. Various samples were added to the CHO-K1 cells, which transiently expressed the receptor by the transfection procedure described above, and a change in intracellular calcium level was measured using FLIPR (Molecular Device). To measure the change in intracellular calcium level on FILPR; the cells were pretreated as follows. First, an assay buffer was prepared to add fluorescent dye Fluo3-AM (DOJIN) to the cells, or to wash the cells immediately before the FLIPR assay. A solution was prepared by adding 20 ml of 1M HEPES (pH 7.4) (DOJIN) to 1000 ml of HBSS (Invitrogen) (hereinafter, HBSS/HEPES solution). After 710 mg of probenecid (Sigma) was dissolved in 5 nil of 1N NaOH, 5 ml of the HBSS/HEPES solution was further added to the solution and the two solutions were mixed with each other. Then, 10 ml of the solution mixture was added to the HBSS/HEPES solution and the resulting solution was used as the assay buffer. Next, 50 μg of Fluo3-AM was added to 21 μl of DMSO (DOJIN) and an equal volume of 20% pluronic acid (Molecular Probes) was added thereto, followed by mixing them. […] Following the pretreatment above, a change in intracellular calcium level was determined with FLIPR, after various test samples were added.

[3] = biological target: T2, mouse 14273 (Mus musculus, UniProt Q7TMA4); test: Change in intracellular calcium level (FLIPR) in CHO-K1 cells transiently expressing mouse 14273; type: cell-based; settings: 30 μM fatty acid (FIG. 1-5); mouse 14273-expressed CHO-K1 cells; no response in expression vector alone-transfected control cells
T2 construct: expressed in transfected cells; host or cells: CHO-K1, transient transfection (Lipofectamine) with the pAKKO-111-based expression vector
T2 sequence (Q7TMA4 1-361): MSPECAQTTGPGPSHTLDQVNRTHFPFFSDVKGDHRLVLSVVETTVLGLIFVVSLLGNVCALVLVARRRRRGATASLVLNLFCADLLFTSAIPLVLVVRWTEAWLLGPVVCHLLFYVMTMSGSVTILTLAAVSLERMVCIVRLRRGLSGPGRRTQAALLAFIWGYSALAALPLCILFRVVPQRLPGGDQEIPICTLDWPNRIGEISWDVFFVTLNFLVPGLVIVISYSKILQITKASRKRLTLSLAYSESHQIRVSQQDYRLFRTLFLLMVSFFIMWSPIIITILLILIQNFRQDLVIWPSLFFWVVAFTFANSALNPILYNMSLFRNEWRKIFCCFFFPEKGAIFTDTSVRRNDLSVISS
Experimental: as §1

[4] = biological target: T1, human 14273; test: Effects of fatty acids on cAMP production in human 14273-expressed CHO cells; type: cell-based; settings: in the presence of forskolin (2 μM); fatty acid 30 μM (FIG. 9); not observed in control CHO cells without human 14273
Experimental: After the reaction, the cells were lysed in accordance with the formulation of cAMP Screen (ABI) and the intracellular cAMP level was assayed.

[5] = system: 3T3-L1 cells; test: Lipolysis (glycerol production) in 3T3-L1 adipose differentiation cells stimulated with isoproterenol; type: cell-based, mouse; settings: 1×10^−9 M isoproterenol plus fatty acid, 2 hours; differentiated 3T3-L1 cells
Experimental: Effects on lipolysis were examined using mouse fibroblast cell line 3T3-L1 cells capable of differentiating into adipocytes. […] The 3T3-L1 cells were plated on a plate and incubated to become confluent. The cells were then treated for 48 hours in the aforesaid medium containing 10 μg/ml of insulin, 0.5 mM 3-isobutyl-1-methylxanthine (IBMX), 2.5 μM dexamethasone to induce differentiation into adipose. Incubation was continued for further 11 days. After the 3T3-L1 cells were differentiated into adipose, a change in the amount of glycerol produced by lipolysis was assayed. After the cells were washed with modified Krebs-Ringer buffer, 1×10^−9 M isoproterenol was added to the cell and simultaneously a fatty acid was added thereto, followed by treatment for 2 hours. The supernatant was then recovered. The glycerol content in the supernatant was determined using Free Glycerol Determination Kit (Sigma).

[6] = system: mouse 14273-GFP fused protein; test: Suppression of expression of mouse 14273-GFP fused protein by siRNA in CHO cells (enzyme immunoassay); type: cell-based; settings: siRNA 20 nM cotransfected to CHO cells, incubation for a day; absorbance at 450 nm
Experimental: After the culture supernatant was discarded and the cells were washed with HBSS (Invitrogen), the cells were fixed with 0.01% glutaraldehyde (Wako Pure Chemical) for 5 minutes, followed by blocking with 2% BSA-containing PBS (Takara Shuzo). Anti-GFP monoclonal antibody 3E6 (Nippon Gene) diluted to 500-fold was added to the cells. After incubation at room temperature for 2 hours, the cells were washed and HRP-labeled anti-mouse IgG antibody (ICN) diluted to 500-fold was added thereto, followed by incubation at room temperature for 2 hours. After washing, TMB microwell peroxidase substrate (Funakoshi) was added to the cells. After incubation for 30 minutes, sulfuric acid was added to discontinue the color-forming reaction and absorbance was measured at 450 nm.

Molecule | suppression of ACTH secretion induced by CRF [1] | change in intracellular calcium level [2] | change in intracellular calcium level [3] | cAMP production suppressing activity [4] | further results
CC/C=C\C/C=C\C/C=C\CCCCCCCC(=O)O [α-linoleic acid] | suppression of ACTH secretion induced by CRF was observed more significantly |  |  |  | 
CCCCC/C=C\C/C=C\C/C=C\C/C=C\CCCC(=O)O [arachidonic acid] |  | specifically responded (increased the intracellular calcium level) | specifically responded (increased the intracellular calcium level) |  | 
CCCCC/C=C\C/C=C\CCCCCCCC(=O)O [linoleic acid] |  | specifically responded (increased the intracellular calcium level) | specifically responded (increased the intracellular calcium level) | showed the cAMP production suppressing activity | 
CCCCCCCC/C=C\CCCCCCCC(=O)O [oleic acid] |  |  |  | showed the cAMP production suppressing activity | 
CCCC(=O)O [butyric acid] | did not show any significant suppression |  |  | did not show any suppressing activity | 
CCCCC/C=C\C/C=C\CCCCCCCC(=O)OC [methyl linoleate] |  |  |  |  | glycerol production increased by isoproterenol stimulation (lipolysis) [5]: such an activity was not observed
CCCCCC/C=C\CCCCCCCC(=O)O [Palmitoleic acid] |  | specifically responded (increased the intracellular calcium level) | specifically responded (increased the intracellular calcium level) |  | 
CCCCC/C=C\C/C=C\C/C=C\CCCCC(=O)O [γ-linolenic acid] | suppression of ACTH secretion induced by CRF was observed more significantly | specifically responded (increased the intracellular calcium level) | specifically responded (increased the intracellular calcium level) | showed the cAMP production suppressing activity | glycerol production increased by isoproterenol stimulation (lipolysis) [5]: resulted in lowering the glycerol production
m14i561: mouse 14273-specific siRNA; sense strand SEQ ID NO: 21, antisense strand SEQ ID NO: 22 (sense GGACCAGGAAAUUCCGAUUNN; antisense NNCCUGGUCCUUUAAGGCUAA; chemistry not fully specified; one strand is listed 3' to 5') |  |  |  |  | suppression of the expression level of pAKKO-14273-GFP [6]: 97%
